Patent US11903385B1, “1-(butyl(2-hydroxy-3-(naphthalen-1-yloxy)propyl)amino)-3-(naphthalen-2-yloxy)propan-2-ol as an eco-friendly insecticidal agent against Spodoptera littoralis (boisd.)” (KING FAISAL UNIVERSITY, priority 2023, dated 2024)
Values after ≈ are worked out from the molar mass of the structure shown. Read-outs that look alike come from different tables or passages of the source.

Assays:
S. littoralis larvae = test: Insecticidal leaf dip bioassay screening; conditions: 72 h; for Toxicity ratio: fenoxycarb's LC50 / the compound's LC50; for LC50: Spodoptera littoralis, foliar
Procedure: Until usage, the stocks were kept in a refrigerator. The target substance test results were noted & the concentrations needed to destroy 50% (LC50) of S. littoralis larvae were calculated. The target compound was employed in five different concentrations, and 0.1% Tween 80 was employed as a surfactant. Castor bean leaf discs (nine centimeters in diameter) were dipped in the concentration under test for ten seconds, then fed to 2th & 4th larvae, which were roughly the same size and housed in glass jars (five lb). Each action was carried out 3 times with ten larvae each. The mortality equalized via Abbott's formula. Calculations of mortality setback line were measurably rummage via probity analysis. […] The mortality results of larval insect were estimated through employing probit analysis through a statistics (LDP-line) equation which estimate the LC50 values with 95% fiducially limits of lower, upper confidence limit and slope.

aquatic insects = conditions: cited from earlier work
[1] = read-out: LC50 (mg/L) at 95%, 2nd instar larvae, after 72 h of treatment
[2] = read-out: LC50 (mg/L) at 95%, 4th instar larvae, after 72 h of treatment

SMILES	Toxicity ratio (S. littoralis larvae; 2nd instar larvae)	Toxicity ratio (S. littoralis larvae; 4th instar larvae)	LC50 (S. littoralis larvae; [1])	LC50 (S. littoralis larvae; [2])	LC50 (aquatic insects)
CCCCN(CC(O)COc1ccc2ccccc2c1)CC(O)COc1cccc2ccccc12 (stereo not drawn) [III, 1-(butyl(2-hydroxy-3-(naphthalen-1-yloxy)propyl)amino)-3-(naphthalen-2-yloxy)propan-2-ol]	0.253	0.551	~10.8 mg/L (≈ 22.7 µM)	~16.6 mg/L (≈ 35.2 µM)	
CCc1ccc(C(=O)NN(C(=O)c2cc(C)cc(C)c2)C(C)(C)C)cc1 [tebufenozide]					100 to 1000 µg/mL
CCOC(=O)NCCOc1ccc(Oc2ccccc2)cc1 [Fenoxycarb]	1	1	2.73 mg/L (≈ 9.06 µM)	9.18 mg/L (≈ 30.5 µM)	
